In PubChem BioAssay (NCI):
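Each compound was tested at five concentrations against cells in 96-well plates for 48 hours. TGI: total growth inhibition.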

Assays:
Test in all cases: NCI tumour cell line growth inhibition, 48 h
A549 NSCLC = test system: A549 NSCLC
SK-MEL-5 melanoma = test system: SK-MEL-5 melanoma
K-562 leukemia = test system: K-562 leukemia
NCI-H226 lung = test system: NCI-H226 lung
NCI-H23 lung = test system: NCI-H23 lung
786-0 renal = test system: 786-0 renal
IGROV1 ovarian = test system: IGROV1 ovarian
BT-549 breast = test system: BT-549 breast
KM12 colon = test system: KM12 colon
SK-MEL-2 melanoma = test system: SK-MEL-2 melanoma
SW-620 colon = test system: SW-620 colon
HCC-2998 colon = test system: HCC-2998 colon
CCRF-CEM leukemia = test system: CCRF-CEM leukemia
EKVX NSCLC = test system: EKVX NSCLC
DU-145 prostate = test system: DU-145 prostate
A498 renal = test system: A498 renal
SN12C renal = test system: SN12C renal
MCF7 breast = test system: MCF7 breast
SK-MEL-28 melanoma = test system: SK-MEL-28 melanoma
M14 melanoma = test system: M14 melanoma
NCI-H460 lung = test system: NCI-H460 lung
OVCAR-3 ovarian = test system: OVCAR-3 ovarian
OVCAR-4 ovarian = test system: OVCAR-4 ovarian
ACHN renal = test system: ACHN renal
MDA-MB-231 breast = test system: MDA-MB-231 breast
UO-31 renal = test system: UO-31 renal
T-47D breast = test system: T-47D breast
SF-268 CNS = test system: SF-268 CNS
COLO 205 colon = test system: COLO 205 colon
NCI/ADR-RES ovarian = test system: NCI/ADR-RES ovarian
SNB-19 CNS = test system: SNB-19 CNS
PC-3 prostate = test system: PC-3 prostate
HCT-15 colon = test system: HCT-15 colon
SF-295 CNS = test system: SF-295 CNS
RPMI-8226 leukemia = test system: RPMI-8226 leukemia
HL-60(TB) leukemia = test system: HL-60(TB) leukemia
RXF 393 renal = test system: RXF 393 renal
HS 578T breast = test system: HS 578T breast
HT29 colon = test system: HT29 colon
SR leukemia = test system: SR leukemia
HCT-116 colon = test system: HCT-116 colon
HOP-62 NSCLC = test system: HOP-62 NSCLC
MDA-N = test system: MDA-N
U251 CNS = test system: U251 CNS
LOX IMVI melanoma = test system: LOX IMVI melanoma
UACC-62 melanoma = test system: UACC-62 melanoma
TK-10 renal = test system: TK-10 renal
MOLT-4 leukemia = test system: MOLT-4 leukemia
CAKI-1 renal = test system: CAKI-1 renal
OVCAR-8 ovarian = test system: OVCAR-8 ovarian
MDA-MB-435 = test system: MDA-MB-435
UACC-257 melanoma = test system: UACC-257 melanoma
SF-539 CNS = test system: SF-539 CNS
MALME-3M melanoma = test system: MALME-3M melanoma
OVCAR-5 ovarian = test system: OVCAR-5 ovarian
SK-OV-3 ovarian = test system: SK-OV-3 ovarian
SNB-75 CNS = test system: SNB-75 CNS
HOP-92 NSCLC = test system: HOP-92 NSCLC
NCI-H522 lung = test system: NCI-H522 lung

SMILES: C=CCCC1CCCCNC1=S (stereo not drawn)
- TGI (A549 NSCLC): > 10 µM
- TGI (SK-MEL-5 melanoma): > 10 µM
- TGI (K-562 leukemia): > 10 µM
- TGI (NCI-H226 lung): > 10 µM
- TGI (NCI-H23 lung): > 10 µM
- TGI (786-0 renal): > 10 µM
- TGI (IGROV1 ovarian): > 10 µM
- TGI (BT-549 breast): > 10 µM
- TGI (KM12 colon): > 10 µM
- TGI (SK-MEL-2 melanoma): > 10 µM
- TGI (SW-620 colon): > 10 µM
- TGI (HCC-2998 colon): > 10 µM
- TGI (CCRF-CEM leukemia): > 10 µM
- TGI (EKVX NSCLC): > 10 µM
- TGI (DU-145 prostate): > 10 µM
- TGI (A498 renal): > 10 µM
- TGI (SN12C renal): > 10 µM
- TGI (MCF7 breast): > 10 µM
- TGI (SK-MEL-28 melanoma): > 10 µM
- TGI (M14 melanoma): > 10 µM
- TGI (NCI-H460 lung): > 10 µM
- TGI (OVCAR-3 ovarian): > 10 µM
- TGI (OVCAR-4 ovarian): > 10 µM
- TGI (ACHN renal): > 10 µM
- TGI (MDA-MB-231 breast): > 10 µM
- TGI (UO-31 renal): > 10 µM
- TGI (T-47D breast): > 10 µM
- TGI (SF-268 CNS): > 10 µM
- TGI (COLO 205 colon): > 10 µM
- TGI (NCI/ADR-RES ovarian): > 10 µM
- TGI (SNB-19 CNS): > 10 µM
- TGI (PC-3 prostate): > 10 µM
- TGI (HCT-15 colon): > 10 µM
- TGI (SF-295 CNS): > 10 µM
- TGI (RPMI-8226 leukemia): > 10 µM
- TGI (HL-60(TB) leukemia): > 10 µM
- TGI (RXF 393 renal): > 10 µM
- TGI (HS 578T breast): > 10 µM
- TGI (HT29 colon): > 10 µM
- TGI (SR leukemia): > 10 µM
- TGI (HCT-116 colon): > 10 µM
- TGI (HOP-62 NSCLC): > 10 µM
- TGI (MDA-N): > 10 µM
- TGI (U251 CNS): > 10 µM
- TGI (LOX IMVI melanoma): > 10 µM
- TGI (UACC-62 melanoma): > 10 µM
- TGI (TK-10 renal): > 10 µM
- TGI (MOLT-4 leukemia): > 10 µM
- TGI (CAKI-1 renal): > 10 µM
- TGI (OVCAR-8 ovarian): > 10 µM
- TGI (MDA-MB-435): > 10 µM
- TGI (UACC-257 melanoma): > 10 µM
- TGI (SF-539 CNS): > 10 µM
- TGI (MALME-3M melanoma): > 10 µM
- TGI (OVCAR-5 ovarian): > 10 µM
- TGI (SK-OV-3 ovarian): > 10 µM

SMILES: O=C1CC2(CCC(O)(c3ccco3)C(C(=O)c3ccco3)C2)C(=O)c2ccccc2N1 (stereo not drawn)
- TGI (A549 NSCLC): > 100 µM
- TGI (SK-MEL-5 melanoma): > 100 µM
- TGI (K-562 leukemia): > 100 µM
- TGI (NCI-H226 lung): > 100 µM
- TGI (NCI-H23 lung): > 100 µM
- TGI (IGROV1 ovarian): > 100 µM
- TGI (BT-549 breast): > 100 µM
- TGI (SK-MEL-2 melanoma): > 100 µM
- TGI (SW-620 colon): > 100 µM
- TGI (HCC-2998 colon): > 100 µM
- TGI (EKVX NSCLC): > 100 µM
- TGI (DU-145 prostate): > 100 µM
- TGI (A498 renal): > 100 µM
- TGI (SN12C renal): > 100 µM
- TGI (MCF7 breast): > 100 µM
- TGI (M14 melanoma): > 100 µM
- TGI (NCI-H460 lung): > 100 µM
- TGI (OVCAR-3 ovarian): > 100 µM
- TGI (OVCAR-4 ovarian): 57 µM
- TGI (MDA-MB-231 breast): > 100 µM
- TGI (UO-31 renal): > 100 µM
- TGI (T-47D breast): 81.7 µM
- TGI (SNB-75 CNS): > 100 µM
- TGI (SF-268 CNS): > 100 µM
- TGI (COLO 205 colon): > 100 µM
- TGI (NCI/ADR-RES ovarian): > 100 µM
- TGI (PC-3 prostate): > 100 µM
- TGI (HCT-15 colon): > 100 µM
- TGI (SF-295 CNS): > 100 µM
- TGI (HL-60(TB) leukemia): > 100 µM
- TGI (RXF 393 renal): > 100 µM
- TGI (HS 578T breast): > 100 µM
- TGI (HOP-92 NSCLC): > 100 µM
- TGI (HT29 colon): > 100 µM
- TGI (SR leukemia): > 100 µM
- TGI (HCT-116 colon): > 100 µM
- TGI (HOP-62 NSCLC): > 100 µM
- TGI (MDA-N): > 100 µM
- TGI (U251 CNS): > 100 µM
- TGI (LOX IMVI melanoma): > 100 µM
- TGI (UACC-62 melanoma): > 100 µM
- TGI (TK-10 renal): > 100 µM
- TGI (CAKI-1 renal): > 100 µM
- TGI (OVCAR-8 ovarian): > 100 µM
- TGI (MDA-MB-435): > 100 µM
- TGI (UACC-257 melanoma): > 100 µM
- TGI (SF-539 CNS): > 100 µM
- TGI (MALME-3M melanoma): > 100 µM
- TGI (OVCAR-5 ovarian): > 100 µM
- TGI (SK-OV-3 ovarian): > 100 µM

SMILES: CN(C)CCn1c(=O)nc2c3c(c([N+](=O)[O-])ccc31)Nc1ccc(O)cc1-2
- TGI (A549 NSCLC): 27.8 µM
- TGI (SK-MEL-5 melanoma): 20.1 µM
- TGI (K-562 leukemia): > 25.7 µM
- TGI (NCI-H226 lung): 20.8 µM
- TGI (NCI-H23 lung): 33.4 µM
- TGI (786-0 renal): 6.52 µM
- TGI (IGROV1 ovarian): 12.3 µM
- TGI (BT-549 breast): 37 µM
- TGI (KM12 colon): > 27.5 µM
- TGI (SK-MEL-2 melanoma): 33.6 µM
- TGI (SW-620 colon): > 42.6 µM
- TGI (HCC-2998 colon): 13.1 µM
- TGI (EKVX NSCLC): > 63.6 µM
- TGI (DU-145 prostate): > 47.5 µM
- TGI (A498 renal): 23.4 µM
- TGI (SN12C renal): 17.1 µM
- TGI (MCF7 breast): 5.68 µM
- TGI (SK-MEL-28 melanoma): 32.7 µM
- TGI (M14 melanoma): > 49.3 µM
- TGI (NCI-H460 lung): 15.6 µM
- TGI (OVCAR-3 ovarian): 15.3 µM
- TGI (OVCAR-4 ovarian): > 42.7 µM
- TGI (ACHN renal): 17.4 µM
- TGI (MDA-MB-231 breast): 10.2 µM
- TGI (UO-31 renal): 28.7 µM
- TGI (T-47D breast): 6.48 µM
- TGI (SNB-75 CNS): 21.2 µM
- TGI (SF-268 CNS): 17.1 µM
- TGI (COLO 205 colon): 14.5 µM
- TGI (NCI/ADR-RES ovarian): > 100 µM
- TGI (SNB-19 CNS): 16.8 µM
- TGI (PC-3 prostate): > 46.9 µM
- TGI (HCT-15 colon): > 100 µM
- TGI (NCI-H522 lung): 6.13 µM
- TGI (SF-295 CNS): 24.8 µM
- TGI (RPMI-8226 leukemia): 26.6 µM
- TGI (RXF 393 renal): 10.5 µM
- TGI (HS 578T breast): 22.4 µM
- TGI (HOP-92 NSCLC): 16.2 µM
- TGI (HT29 colon): 15.3 µM
- TGI (SR leukemia): 8.92 µM
- TGI (HCT-116 colon): 8.37 µM
- TGI (HOP-62 NSCLC): 16.6 µM
- TGI (MDA-N): 23.7 µM
- TGI (U251 CNS): 6.26 µM
- TGI (LOX IMVI melanoma): 3.15 µM
- TGI (UACC-62 melanoma): 23.2 µM
- TGI (TK-10 renal): 36 µM
- TGI (MOLT-4 leukemia): 3.6 µM
- TGI (CAKI-1 renal): > 45.7 µM
- TGI (OVCAR-8 ovarian): 11.4 µM
- TGI (MDA-MB-435): 46.6 µM
- TGI (UACC-257 melanoma): > 54.9 µM
- TGI (SF-539 CNS): 8.36 µM
- TGI (MALME-3M melanoma): 18 µM
- TGI (OVCAR-5 ovarian): > 81.2 µM
- TGI (SK-OV-3 ovarian): 35.1 µM
